According to ChEMBL document CHEMBL1201862, “PubChem BioAssay data set” (2004):
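Briefly, cells in 96-well plates were exposed to five compound concentrations for 48 h, and endpoints were estimated by linear interpolation. GI50 marks 50% less growth.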 Active and inactive are the calls of the source. Rule as the data show it: active = GI50 up to about 1.1 µM and inactive = higher.

What was measured:
Assay in all cases: DTP human tumour cell line panel, 48 h
[1] = test system: KM12
[2] = test system: CCRF-CEM
[3] = test system: RPMI-8226
[4] = test system: UO-31
[5] = test system: OVCAR-4
[6] = test system: HT-29
[7] = test system: A549
[8] = test system: 786-0
[9] = test system: SF-295
[10] = test system: Malme-3M
[11] = test system: OVCAR-5
[12] = test system: M14
[13] = test system: LOX IMVI
[14] = test system: MOLT-4
[15] = test system: HCT-116
[16] = test system: DMS-114
[17] = test system: ACHN
[18] = test system: SR
[19] = test system: U-251
[20] = test system: OVCAR-3
[21] = test system: SK-MEL-2
[22] = test system: A498
[23] = test system: OVCAR-8
[24] = test system: KM-20L2
[25] = test system: RXF 393
[26] = test system: NCI-H460
[27] = test system: K562
[28] = test system: SW-620
[29] = test system: EKVX
[30] = test system: M19-MEL
[31] = test system: DMS-273
[32] = test system: HOP-62
[33] = test system: SNB-19
[34] = test system: NCI-H23
[35] = test system: SK-MEL-28
[36] = test system: IGROV-1
[37] = test system: SN12C
[38] = test system: SK-MEL-5
[39] = test system: SNB-78
[40] = test system: HL-60
[41] = test system: HCT-15
[42] = test system: COLO 205
[43] = test system: SNB-75
[44] = test system: LXFL 529
[45] = test system: DLD-1
[46] = test system: UACC-62
[47] = test system: NCI-H522
[48] = test system: TK-10
[49] = test system: SF-539
[50] = test system: UACC-257
[51] = test system: SF-268
[52] = test system: HOP-18
[53] = test system: CAKI-1
[54] = test system: HCC 2998
[55] = test system: NCI-H226
[56] = test system: SK-OV-3
[57] = test system: HOP-92

In the case of `O=C1/C(=C/c2ccccc2)CN(C(=O)C(F)(F)F)C/C1=C\c1ccccc1`, the GI50 [1] was 1540 nM (inactive), the GI50 [2] was 1540 nM (inactive) and the GI50 [3] was 165 nM (active). For the same molecule, the GI50 [4] was 2180 nM (inactive), the GI50 [5] was 2440 nM (inactive) and the GI50 [6] was 1300 nM (inactive). For the same molecule, the GI50 [7] was 3170 nM (inactive), the GI50 [8] was 1680 nM (inactive) and the GI50 [9] was 1590 nM (inactive). For the same molecule, the GI50 [10] was 3720 nM (inactive), the GI50 [11] was 3460 nM (inactive) and the GI50 [12] was 1610 nM (inactive). For the same molecule, the GI50 [13] was 1220 nM (inactive), the GI50 [14] was 3060 nM (inactive) and the GI50 [15] was 333 nM (active). For the same molecule, the GI50 [16] was 1640 nM (inactive), the GI50 [17] was 2240 nM (inactive) and the GI50 [18] was 2020 nM (inactive). The GI50 [19] was 1570 nM (inactive), the GI50 [20] was 3250 nM (inactive) and the GI50 [21] was 7980 nM (inactive). For the same molecule, the GI50 [22] was 1980 nM (inactive), the GI50 [23] was 1640 nM (inactive) and the GI50 [24] was 2110 nM (inactive). For the same molecule, the GI50 [25] was 1840 nM (inactive), the GI50 [26] was 1560 nM (inactive) and the GI50 [27] was 467 nM (active). For the same molecule, the GI50 [28] was 480 nM (active), the GI50 [29] was > 10000 nM (inactive) and the GI50 [30] was 1610 nM (inactive). The GI50 [31] was 1440 nM (inactive), the GI50 [32] was 11500 nM (inactive) and the GI50 [33] was 4280 nM (inactive). For the same molecule, the GI50 [34] was 1830 nM (inactive), the GI50 [35] was 1830 nM (inactive) and the GI50 [36] was 2290 nM (inactive). The GI50 [37] was 1700 nM (inactive), the GI50 [38] was 1710 nM (inactive) and the GI50 [39] was 2200 nM (inactive). The GI50 [40] was 733 nM (active), the GI50 [41] was 2030 nM and the GI50 [42] was 2420 nM (inactive). For the same molecule, the GI50 [43] was 6580 nM (inactive), the GI50 [44] was 1660 nM (inactive) and the GI50 [45] was 2070 nM (inactive). The GI50 [46] was 1840 nM (inactive), the GI50 [47] was 2740 nM (inactive) and the GI50 [48] was 3610 nM (inactive). For the same molecule, the GI50 [49] was 1860 nM (inactive), the GI50 [50] was 1660 nM (inactive) and the GI50 [51] was 3940 nM (inactive). The GI50 [52] was 6820 nM (inactive).
For `O=c1ncccn1C1OC(CO)C(O)C1O` (centres undefined), the GI50 [1] was > 100000 nM (inactive), the GI50 [2] was > 100000 nM (inactive) and the GI50 [3] was > 100000 nM (inactive). For the same molecule, the GI50 [4] was > 100000 nM (inactive), the GI50 [5] was > 100000 nM (inactive) and the GI50 [6] was > 100000 nM (inactive). The GI50 [7] was > 100000 nM (inactive), the GI50 [8] was > 100000 nM (inactive) and the GI50 [53] was > 100000 nM (inactive). The GI50 [10] was > 100000 nM (inactive), the GI50 [11] was > 100000 nM (inactive) and the GI50 [12] was > 100000 nM (inactive). For the same molecule, the GI50 [13] was > 100000 nM (inactive), the GI50 [15] was > 100000 nM (inactive) and the GI50 [16] was > 100000 nM (inactive). For the same molecule, the GI50 [17] was > 100000 nM (inactive), the GI50 [19] was > 100000 nM (inactive) and the GI50 [21] was > 100000 nM (inactive). The GI50 [22] was > 100000 nM (inactive), the GI50 [23] was > 100000 nM (inactive) and the GI50 [24] was > 100000 nM (inactive). The GI50 [25] was > 100000 nM (inactive), the GI50 [26] was > 100000 nM (inactive) and the GI50 [27] was > 100000 nM (inactive). For the same molecule, the GI50 [28] was > 100000 nM (inactive), the GI50 [29] was > 100000 nM (inactive) and the GI50 [30] was > 100000 nM (inactive). The GI50 [31] was > 100000 nM (inactive), the GI50 [33] was 91800 nM (inactive) and the GI50 [34] was > 100000 nM (inactive). For the same molecule, the GI50 [35] was > 100000 nM (inactive), the GI50 [36] was > 100000 nM (inactive) and the GI50 [37] was > 100000 nM (inactive). For the same molecule, the GI50 [54] was > 100000 nM (inactive), the GI50 [39] was > 100000 nM (inactive) and the GI50 [41] was greater than 100000 nM. The GI50 [42] was > 100000 nM (inactive), the GI50 [43] was > 100000 nM (inactive) and the GI50 [44] was > 100000 nM (inactive). The GI50 [55] was > 100000 nM (inactive), the GI50 [45] was > 100000 nM (inactive) and the GI50 [56] was > 100000 nM (inactive). For the same molecule, the GI50 [46] was > 100000 nM (inactive), the GI50 [47] was > 100000 nM (inactive) and the GI50 [48] was > 100000 nM (inactive). The GI50 [57] was > 100000 nM (inactive), the GI50 [50] was > 10000 nM (inactive) and the GI50 [51] was > 100000 nM (inactive). For the same molecule, the GI50 [52] was > 100000 nM (inactive).
With `O=C(Nc1ccc([N+](=O)[O-])cc1Cl)c1cccc([N+](=O)[O-])c1O` the GI50 [1] was 3110 nM (inactive), the GI50 [2] was 1130 nM (inactive) and the GI50 [3] was 920 nM (active). The GI50 [4] was 1450 nM (inactive), the GI50 [5] was 2820 nM (inactive) and the GI50 [6] was 3040 nM (inactive). The GI50 [7] was 2300 nM (inactive), the GI50 [53] was 1830 nM (inactive) and the GI50 [9] was 1920 nM (inactive). For the same molecule, the GI50 [10] was 552 nM (active), the GI50 [11] was 3020 nM (inactive) and the GI50 [13] was 1710 nM (inactive). For the same molecule, the GI50 [14] was 1880 nM (inactive), the GI50 [17] was 2520 nM (inactive) and the GI50 [18] was 2900 nM (inactive). The GI50 [19] was 2750 nM (inactive), the GI50 [21] was 1600 nM (inactive) and the GI50 [22] was 668 nM (active). For the same molecule, the GI50 [23] was 2610 nM (inactive), the GI50 [24] was 2740 nM (inactive) and the GI50 [26] was 2210 nM (inactive). For the same molecule, the GI50 [27] was 1120 nM (inactive), the GI50 [28] was 2590 nM (inactive) and the GI50 [29] was 2160 nM (inactive). The GI50 [33] was 3090 nM (inactive), the GI50 [34] was 1120 nM (inactive) and the GI50 [35] was 1600 nM (inactive). The GI50 [37] was 1480 nM (inactive), the GI50 [54] was 1690 nM (inactive) and the GI50 [39] was 2300 nM (inactive). The GI50 [40] was 1870 nM (inactive), the GI50 [44] was 1090 nM (active) and the GI50 [55] was 2840 nM (inactive). The GI50 [47] was 755 nM (active), the GI50 [49] was 2050 nM (inactive) and the GI50 [50] was 2020 nM (inactive). For the same molecule, the GI50 [51] was 2700 nM (inactive) and the GI50 [52] was 109 nM (active).
